{"source": "patent US5795977A", "about": "“Water soluble adenosine kinase inhibitors” (Metabasis Therapeutics, Inc., priority 1996, dated 1998)", "key": {"Rats (carrageenan paw)": {"system": "Rats (carrageenan paw)", "assay": "Anti-inflammatory activity, carrageenan paw swelling", "assay_type": "in vivo", "details": "rat, oral gavage, 10 mg/kg, swelling after 3 hours", "description": "Carrageenan (Type λ) was suspended in sterile PBS at 1% (w/v), autoclaved for 30 minutes, and stored at room temperature. Rats were pretreated with vehicle or AK inhibitor (10 mg/kg) by oral gavage or i.p. administration and the volume of the left hind paw was measured using a water displacement plethysmometer (Stoelting Co., Wood Dale, Ill.). One hour after oral treatment or 30 minutes after i.p. treatment, the rats were briefly anesthetized, and 0.1 ml of the carrageenan solution was injected subcutaneously into the planar surface of the left hind paw. The ensuing paw swelling was measured by plethysmometry after 3 hours. The paw volume in millileters was […]. Data are presented in Table 2 as the percent inhibition of paw swelling in AK inhibitor treated animals, compared to vehicle treated control animals."}, "[1]": {"biological_target": "partially purified pig heart adenosine kinase or recombinant human adenosine kinase", "assay": "AK inhibition", "assay_type": "biochemical", "details": "0.5 μM [U-14C] adenosine, pH 7.0, 37° C., 20 minutes", "description": "Adenosine kinase activity was measured essentially as described by Yamada et al. Biochim. Biophys. Acta 660, 36-43 (1988) with a few minor modifications. Assay mixtures contained 50 mM TRIS-maleate buffer, pH 7.0, 0.1% BSA, 1 mM ATP 1 mM MgCl2, 0.5 μM [U-^14 C] adenosine (400-600 mCi/mmol) and varying duplicate concentrations of inhibitor. […] The amount of ^14 C-AMP was quantified by scintillation counting."}}, "note": "Where a name gives a salt, the structure may show the parent alone."}
{"molecule": "C[C@H]1O[C@@H](n2cc(-c3ccccc3)c3c(Nc4ccc(CCN5CCNCC5)cc4)ncnc32)[C@H](O)[C@@H]1O", "note": "[Compound 4, 4-N-[4-(2-(1-piperazino)ethyl)phenyl]amino-5-phenyl-7-(5-deoxy-β-D-ribofuranosyl)pyrrolo[2,3-d]pyrimidine]", "values": [{"measurement": "Carrageenan Paw (% inhibition) po", "setting": "Rats (carrageenan paw)", "result": 2.5, "unit": "%"}]}
{"molecule": "C[C@H]1O[C@@H](n2cc(-c3ccccc3)c3c(Nc4ccc(C(=N)N)cc4)ncnc32)[C@H](O)[C@@H]1O", "note": "[Compound 39, 4-N -(4-amidinophenyl)amino-5-phenyl-7-(5-deoxy-1-β-ribofuranosyl)pyrrolo[2,3-d]pyrimidine]", "values": [{"measurement": "IC50", "setting": "[1]", "result": 1, "unit": "nM"}]}
{"molecule": "CC(=O)NS(=O)(=O)c1ccc(Nc2ncnc3c2c(-c2ccccc2)cn3[C@@H]2O[C@H](C)[C@@H](O)[C@H]2O)cc1", "note": "[Compound 40, 4-N-[4-(N-acetylaminosulfonyl)phenyl]amino-5-phenyl-7-(5-deoxy-1-β-D-ribofuranosyl)pyrrolo[2,3-d]pyrimidine]", "values": [{"measurement": "IC50", "setting": "[1]", "result": 3000, "unit": "nM"}]}
{"molecule": "C[C@H]1O[C@@H](n2cc(I)c3c(NCc4ccccn4)ncnc32)[C@H](O)[C@@H]1O", "note": "[Compound 41, 4-N-(2-pyridylmethylamino)-5-iodo-7-(5-deoxy-1-β-D-ribofuranosyl)pyrrolo[2,3-d]pyrimidine]", "values": [{"measurement": "IC50", "setting": "[1]", "result": 70, "unit": "nM"}]}
{"molecule": "C[C@H]1O[C@@H](n2cc(I)c3c(NCc4cccnc4)ncnc32)[C@H](O)[C@@H]1O", "note": "[Compound 44, 4-N-(3-pyridylmethylamino)-5-iodo-7-(5-deoxy-1-β-D-ribofuranosyl)pyrrolo[2,3-d]pyrimidine]", "values": [{"measurement": "IC50", "setting": "[1]", "result": 120, "unit": "nM"}]}
{"molecule": "C[C@H]1O[C@@H](n2cc(I)c3c(NCc4nc5ccccc5[nH]4)ncnc32)[C@H](O)[C@@H]1O", "note": "[Compound 45, 4-N-(2-benzimidazolylmethyl)amino-5-iodo-7-(5-deoxy-1-β-D-ribofuranosyl) pyrrolo[(2,3-d)]pyrimidine]", "values": [{"measurement": "IC50", "setting": "[1]", "result": 500, "unit": "nM"}]}
{"molecule": "OC[C@@H]1O[C@@H](n2cc(I)c3c(NCc4ccccn4)ncnc32)[C@H](O)[C@@H]1O", "note": "[Compound 46, 4-N-(2-pyridylmethyl)amino-5-iodo-7-(a-L-lyxofuranosyl)pyrrolo(2,3-d)pyrimidine]", "values": [{"measurement": "IC50", "setting": "[1]", "result": 220, "unit": "nM"}]}
{"molecule": "C[C@H]1O[C@@H](n2cc(-c3cccnc3)c3c(NCc4ccccn4)ncnc32)[C@H](O)[C@@H]1O", "note": "[Compound 48, 4-N-(2-pyridylmethyl)amino-5-(3-pyridino)-7-(5-deoxy-1-β-D-ribofuranosyl)pyrrolo[2,3-d]pyrimidine]", "values": [{"measurement": "IC50", "setting": "[1]", "result": 300, "unit": "nM"}]}
{"molecule": "C[C@H]1O[C@@H](n2cc(-c3ccccc3)c3c(Nc4ccc(CC(=O)O)cc4)ncnc32)[C@H](O)[C@@H]1O", "note": "[Compound 186, 4-N-(4-Carboxymethylphenyl)amino-5-phenyl-7-(5-deoxy-1-β-D-ribofuranosyl)pyrrolo[2,3-d]pyrimidine]", "values": [{"measurement": "IC50", "setting": "[1]", "result": 80, "unit": "nM"}]}
{"molecule": "C[C@H]1O[C@@H](n2cc(-c3ccc(CN4CCNCC4)cc3)c3c(Nc4ccc(F)cc4)ncnc32)[C@H](O)[C@@H]1O", "note": "[Compound 197, 4-N-(4-fluorophenyl)amino-5-[4-(N-piperazinomethyl)phenyl]-7-(5-deoxy-β-D-ribofuranosyl)pyrrolo[2,3-d]pyrimidine]", "values": [{"measurement": "IC50", "setting": "[1]", "result": 9, "unit": "nM"}]}
{"molecule": "C[C@H]1O[C@@H](n2cc(-c3ccc(CN(C)C)cc3)c3c(Nc4ccc(F)cc4)ncnc32)[C@H](O)[C@@H]1O", "note": "[Compound 198, 4-N-(4-fluorophenyl)amino-5-[4-(dimethylaminomethyl)phenyl]-7-(5-deoxy-β-D-ribofuranosyl)pyrrolo[2,3-d]pyrimidine]", "values": [{"measurement": "IC50", "setting": "[1]", "result": 120, "unit": "nM"}]}
{"molecule": "C[C@H]1O[C@@H](n2cc(-c3ccc(C(=O)N4CCNCC4)cc3)c3c(Nc4ccc(F)cc4)ncnc32)[C@H](O)[C@@H]1O", "note": "[Compound 199, 4-N-(4-fluorophenyl)amino-5-[4-(N-piperazinocarbonyl)phenyl]-7-(5-deoxy-1-β-D-ribofuranosyl)pyrrolo(2,3-d]pyrimidine hydrochloride salt]", "values": [{"measurement": "IC50", "setting": "[1]", "result": 550, "unit": "nM"}]}
